Key:
Assay in all cases: KINOMEscan competition binding
Details in all cases: compound 10.0 µM
[1] = target: NEK5 (human) (UniProt Q6P3R8)
[2] = target: JAK1 JH1 catalytic (human) (UniProt P23458)
[3] = target: PTK2B (human) (UniProt Q14289)
[4] = target: STK10 (human) (UniProt O94804)
[5] = target: RIOK3 (human) (UniProt O14730)
[6] = target: STK36 (human) (UniProt Q9NRP7)
[7] = target: CSNK1G1 (human) (UniProt Q9HCP0)
[8] = target: ULK3 (human) (UniProt Q6PHR2)
[9] = target: CDK3 (human) (UniProt Q00526)
[10] = system: PIK3CA (human), P42336 [M1043I]
[11] = target: GAK (human) (UniProt O14976)
[12] = target: NEK4 (human) (UniProt P51957)
[13] = system: PIK3CA (human), P42336 [H1047L]
[14] = target: CIT (human) (UniProt O14578)
[15] = target: CAMK2D (human) (UniProt Q13557)
[16] = target: EGFR (human) (UniProt P00533)
[17] = target: PDPK1 (human) (UniProt O15530)
[18] = target: CDK4 CCND1 (human) (UniProt P11802+P24385)
[19] = target: PRKD2 (human) (UniProt Q9BZL6)
[20] = target: PIK3CB (human) (UniProt P42338)
Chain of PIK3CB (human) (P42338 whole entry, looked up): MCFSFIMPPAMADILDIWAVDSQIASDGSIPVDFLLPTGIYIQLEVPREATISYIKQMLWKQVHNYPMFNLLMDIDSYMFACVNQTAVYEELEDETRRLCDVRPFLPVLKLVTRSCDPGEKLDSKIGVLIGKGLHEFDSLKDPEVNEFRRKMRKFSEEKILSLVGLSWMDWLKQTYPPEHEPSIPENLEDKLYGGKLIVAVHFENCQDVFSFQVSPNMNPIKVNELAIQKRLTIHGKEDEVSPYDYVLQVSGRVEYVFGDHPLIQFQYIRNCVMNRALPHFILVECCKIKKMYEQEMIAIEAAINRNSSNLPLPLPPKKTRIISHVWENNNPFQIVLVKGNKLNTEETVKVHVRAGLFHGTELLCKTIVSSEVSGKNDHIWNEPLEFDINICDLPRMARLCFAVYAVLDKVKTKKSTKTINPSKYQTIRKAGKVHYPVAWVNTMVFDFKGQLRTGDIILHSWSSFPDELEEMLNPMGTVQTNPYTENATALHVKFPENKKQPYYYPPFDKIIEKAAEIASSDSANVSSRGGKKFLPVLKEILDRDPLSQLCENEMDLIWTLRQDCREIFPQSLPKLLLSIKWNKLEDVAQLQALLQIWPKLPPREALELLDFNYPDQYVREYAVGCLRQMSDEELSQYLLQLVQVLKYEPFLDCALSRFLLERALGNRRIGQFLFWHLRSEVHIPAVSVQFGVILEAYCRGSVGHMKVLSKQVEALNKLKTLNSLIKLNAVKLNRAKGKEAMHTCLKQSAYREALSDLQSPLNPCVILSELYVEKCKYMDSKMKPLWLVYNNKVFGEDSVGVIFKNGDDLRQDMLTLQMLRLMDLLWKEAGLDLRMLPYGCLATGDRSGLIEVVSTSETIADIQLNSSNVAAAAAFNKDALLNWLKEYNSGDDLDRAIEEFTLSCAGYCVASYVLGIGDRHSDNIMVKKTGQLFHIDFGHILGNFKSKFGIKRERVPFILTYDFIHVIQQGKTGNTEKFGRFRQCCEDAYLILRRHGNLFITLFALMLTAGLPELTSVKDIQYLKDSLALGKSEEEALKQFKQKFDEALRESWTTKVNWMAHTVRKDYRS

[21] = target: SIK1 (human) (UniProt P57059)
Chain of SIK1 (human) (P57059 whole entry, looked up): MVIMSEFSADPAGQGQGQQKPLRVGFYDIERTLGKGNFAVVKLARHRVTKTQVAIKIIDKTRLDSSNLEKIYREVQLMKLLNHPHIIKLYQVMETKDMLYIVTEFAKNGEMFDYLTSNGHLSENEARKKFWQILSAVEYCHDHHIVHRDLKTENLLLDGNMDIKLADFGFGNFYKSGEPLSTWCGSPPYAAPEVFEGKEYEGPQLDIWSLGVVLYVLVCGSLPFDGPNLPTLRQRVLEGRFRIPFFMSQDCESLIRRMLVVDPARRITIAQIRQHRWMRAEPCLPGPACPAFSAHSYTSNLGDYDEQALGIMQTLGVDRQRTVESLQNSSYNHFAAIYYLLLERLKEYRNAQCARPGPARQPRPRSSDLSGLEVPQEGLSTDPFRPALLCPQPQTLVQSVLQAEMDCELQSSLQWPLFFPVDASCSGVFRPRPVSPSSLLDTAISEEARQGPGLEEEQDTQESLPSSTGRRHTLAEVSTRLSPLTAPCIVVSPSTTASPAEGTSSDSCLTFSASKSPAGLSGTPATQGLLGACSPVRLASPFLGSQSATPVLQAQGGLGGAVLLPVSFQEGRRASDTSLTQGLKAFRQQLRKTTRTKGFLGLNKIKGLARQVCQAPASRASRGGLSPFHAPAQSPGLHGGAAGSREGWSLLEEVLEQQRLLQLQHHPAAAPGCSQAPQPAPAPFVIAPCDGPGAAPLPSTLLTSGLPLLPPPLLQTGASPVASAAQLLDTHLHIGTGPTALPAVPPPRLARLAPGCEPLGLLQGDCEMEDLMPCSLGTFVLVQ

[22] = target: EPHB6 (human) (UniProt O15197)
[23] = target: WEE1 (human) (UniProt P30291)
[24] = target: ULK1 (human) (UniProt O75385)
Chain of ULK1 (human) (O75385 whole entry, looked up): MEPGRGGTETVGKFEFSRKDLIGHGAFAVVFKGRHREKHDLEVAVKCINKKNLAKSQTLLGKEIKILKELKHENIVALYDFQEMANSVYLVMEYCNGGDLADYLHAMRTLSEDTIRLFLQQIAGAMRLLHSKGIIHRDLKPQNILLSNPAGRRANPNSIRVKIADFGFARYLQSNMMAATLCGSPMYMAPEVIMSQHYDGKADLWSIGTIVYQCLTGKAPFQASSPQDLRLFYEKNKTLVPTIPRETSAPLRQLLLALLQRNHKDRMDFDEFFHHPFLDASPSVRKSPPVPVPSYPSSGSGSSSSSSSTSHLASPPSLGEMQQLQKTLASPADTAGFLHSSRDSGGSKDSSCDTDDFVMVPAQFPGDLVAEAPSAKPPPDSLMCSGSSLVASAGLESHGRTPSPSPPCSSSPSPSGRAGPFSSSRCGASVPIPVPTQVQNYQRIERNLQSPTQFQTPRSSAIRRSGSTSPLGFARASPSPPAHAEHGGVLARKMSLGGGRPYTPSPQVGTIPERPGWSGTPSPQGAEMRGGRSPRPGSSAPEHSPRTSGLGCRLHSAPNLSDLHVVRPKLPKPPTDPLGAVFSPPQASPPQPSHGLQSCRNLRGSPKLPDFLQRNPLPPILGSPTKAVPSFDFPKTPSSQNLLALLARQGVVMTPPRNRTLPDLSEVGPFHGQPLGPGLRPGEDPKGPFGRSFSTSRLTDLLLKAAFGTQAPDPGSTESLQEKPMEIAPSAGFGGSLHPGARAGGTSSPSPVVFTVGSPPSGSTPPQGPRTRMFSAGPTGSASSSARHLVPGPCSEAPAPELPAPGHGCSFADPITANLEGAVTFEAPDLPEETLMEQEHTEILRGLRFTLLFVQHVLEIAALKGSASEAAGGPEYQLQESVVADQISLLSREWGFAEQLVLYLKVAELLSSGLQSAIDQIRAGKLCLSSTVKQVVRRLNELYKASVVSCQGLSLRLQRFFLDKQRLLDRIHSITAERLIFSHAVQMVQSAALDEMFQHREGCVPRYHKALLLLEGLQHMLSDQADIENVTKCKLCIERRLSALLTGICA

[25] = target: DAPK1 (human) (UniProt P53355)
[26] = target: PRKCE (human) (UniProt Q02156)
[27] = target: MAP2K7 (human) (UniProt O14733)
[28] = target: TYK2 JH2 pseudokinase (human) (UniProt P29597)
[29] = target: AURKB (human) (UniProt Q96GD4)
[30] = target: MKNK2 (human) (UniProt Q9HBH9)
[31] = target: VRK2 (human) (UniProt Q86Y07)
[32] = system: CPK1 (P.falciparum)
[33] = target: MAPK12 (human) (UniProt P53778)
Chain of MAPK12 (human) (P53778 whole entry, looked up): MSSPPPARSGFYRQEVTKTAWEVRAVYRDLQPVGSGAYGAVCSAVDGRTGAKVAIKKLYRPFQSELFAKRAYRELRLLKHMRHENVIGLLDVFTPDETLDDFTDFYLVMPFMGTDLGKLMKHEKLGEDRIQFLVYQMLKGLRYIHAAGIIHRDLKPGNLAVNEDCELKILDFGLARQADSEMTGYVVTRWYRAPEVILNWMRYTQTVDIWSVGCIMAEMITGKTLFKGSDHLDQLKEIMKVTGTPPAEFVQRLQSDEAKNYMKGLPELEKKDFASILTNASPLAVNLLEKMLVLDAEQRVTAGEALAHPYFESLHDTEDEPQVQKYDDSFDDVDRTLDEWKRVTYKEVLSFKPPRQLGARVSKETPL

[34] = target: PDGFRA (human) (UniProt P16234)
[35] = target: NEK3 (human) (UniProt P51956)
[36] = target: MAP4K5 (human) (UniProt Q9Y4K4)
[37] = target: LRRK2 (human) (UniProt Q5S007)
[38] = target: MAP3K6 (human) (UniProt O95382)
[39] = system: RET (human), P07949 [V804L]
[40] = target: NEK11 (human) (UniProt Q8NG66)

Chain of NEK5 (human) (Q6P3R8 whole entry, looked up): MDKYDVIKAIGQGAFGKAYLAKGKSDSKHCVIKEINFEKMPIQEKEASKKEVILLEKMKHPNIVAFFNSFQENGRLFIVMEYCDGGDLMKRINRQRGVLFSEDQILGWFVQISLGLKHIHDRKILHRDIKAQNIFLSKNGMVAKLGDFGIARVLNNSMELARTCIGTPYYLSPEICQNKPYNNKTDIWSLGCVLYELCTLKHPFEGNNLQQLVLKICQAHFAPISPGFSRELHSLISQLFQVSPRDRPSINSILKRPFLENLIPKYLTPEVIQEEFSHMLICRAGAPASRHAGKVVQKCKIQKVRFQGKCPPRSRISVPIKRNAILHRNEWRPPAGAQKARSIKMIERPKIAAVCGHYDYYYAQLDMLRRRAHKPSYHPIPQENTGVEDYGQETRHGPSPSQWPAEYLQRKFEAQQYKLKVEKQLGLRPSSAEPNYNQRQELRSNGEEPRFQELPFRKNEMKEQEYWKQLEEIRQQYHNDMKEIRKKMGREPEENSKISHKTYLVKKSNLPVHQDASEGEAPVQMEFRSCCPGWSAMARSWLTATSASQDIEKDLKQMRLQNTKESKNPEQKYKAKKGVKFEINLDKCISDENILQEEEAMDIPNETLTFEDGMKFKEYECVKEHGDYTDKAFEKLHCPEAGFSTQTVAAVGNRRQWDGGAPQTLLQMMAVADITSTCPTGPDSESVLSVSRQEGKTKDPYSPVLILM
Chain of RIOK3 (human) (O14730 whole entry, looked up): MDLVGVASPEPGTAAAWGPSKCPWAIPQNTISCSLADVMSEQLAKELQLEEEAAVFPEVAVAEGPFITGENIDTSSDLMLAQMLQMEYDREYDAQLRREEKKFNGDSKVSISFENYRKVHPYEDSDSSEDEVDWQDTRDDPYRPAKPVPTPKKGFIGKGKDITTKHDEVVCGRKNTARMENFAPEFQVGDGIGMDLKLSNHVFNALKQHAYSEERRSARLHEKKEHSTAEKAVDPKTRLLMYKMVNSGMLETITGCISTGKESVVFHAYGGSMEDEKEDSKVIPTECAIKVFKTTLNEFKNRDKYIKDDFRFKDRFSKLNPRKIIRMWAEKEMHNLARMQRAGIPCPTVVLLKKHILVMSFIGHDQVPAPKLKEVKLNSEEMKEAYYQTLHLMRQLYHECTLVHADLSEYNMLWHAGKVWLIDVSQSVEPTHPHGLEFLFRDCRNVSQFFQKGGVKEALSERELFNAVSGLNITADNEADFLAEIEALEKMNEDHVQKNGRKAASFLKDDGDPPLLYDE
Chain of ULK3 (human) (Q6PHR2 whole entry, looked up): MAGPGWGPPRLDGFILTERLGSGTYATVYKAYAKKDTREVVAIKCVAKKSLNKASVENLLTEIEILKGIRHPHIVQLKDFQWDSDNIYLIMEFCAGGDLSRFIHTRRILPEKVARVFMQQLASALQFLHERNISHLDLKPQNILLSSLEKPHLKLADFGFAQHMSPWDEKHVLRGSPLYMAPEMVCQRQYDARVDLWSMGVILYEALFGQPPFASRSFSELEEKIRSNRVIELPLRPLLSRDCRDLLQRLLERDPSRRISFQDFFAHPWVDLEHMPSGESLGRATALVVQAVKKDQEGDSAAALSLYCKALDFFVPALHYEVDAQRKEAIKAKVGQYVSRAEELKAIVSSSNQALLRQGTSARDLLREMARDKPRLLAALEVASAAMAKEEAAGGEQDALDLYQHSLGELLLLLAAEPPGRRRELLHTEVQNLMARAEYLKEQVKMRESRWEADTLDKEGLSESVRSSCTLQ

CCCS(=O)(=O)Nc1ccc(F)c(C(=O)c2c[nH]c3ncc(Cl)cc23)c1F
kinase still bound, per cent of control [1]: 100% | kinase still bound, per cent of control [2]: 77% | kinase still bound, per cent of control [3]: 83% | kinase still bound, per cent of control [4]: 68% | kinase still bound, per cent of control [5]: 100% | kinase still bound, per cent of control [6]: 18% | kinase still bound, per cent of control [7]: 66% | kinase still bound, per cent of control [8]: 60% | kinase still bound, per cent of control [9]: 98% | kinase still bound, per cent of control [10]: 76% | kinase still bound, per cent of control [11]: 40% | kinase still bound, per cent of control [12]: 71% | kinase still bound, per cent of control [13]: 100% | kinase still bound, per cent of control [14]: 66% | kinase still bound, per cent of control [15]: 99% | kinase still bound, per cent of control [16]: 76% | kinase still bound, per cent of control [17]: 85% | kinase still bound, per cent of control [18]: 64% | kinase still bound, per cent of control [19]: 100% | kinase still bound, per cent of control [20]: 100% | kinase still bound, per cent of control [21]: 2.6% | kinase still bound, per cent of control [22]: 3.6% | kinase still bound, per cent of control [23]: 100% | kinase still bound, per cent of control [24]: 44% | kinase still bound, per cent of control [25]: 89% | kinase still bound, per cent of control [26]: 100% | kinase still bound, per cent of control [27]: 83% | kinase still bound, per cent of control [28]: 100% | kinase still bound, per cent of control [29]: 29% | kinase still bound, per cent of control [30]: 84% | kinase still bound, per cent of control [31]: 77% | kinase still bound, per cent of control [32]: 0% | kinase still bound, per cent of control [33]: 100% | kinase still bound, per cent of control [34]: 0.2% | kinase still bound, per cent of control [35]: 69% | kinase still bound, per cent of control [36]: 22% | kinase still bound, per cent of control [37]: 37% | kinase still bound, per cent of control [38]: 96% | kinase still bound, per cent of control [39]: 96%

CC(=O)c1c(C)c2cnc(Nc3ccc(N4CCNCC4)cn3)nc2n(C2CCCC2)c1=O
kinase still bound, per cent of control [1]: 27% | kinase still bound, per cent of control [3]: 31% | kinase still bound, per cent of control [4]: 23% | kinase still bound, per cent of control [5]: 64% | kinase still bound, per cent of control [6]: 78% | kinase still bound, per cent of control [7]: 83% | kinase still bound, per cent of control [8]: 40% | kinase still bound, per cent of control [9]: 74% | kinase still bound, per cent of control [10]: 68% | kinase still bound, per cent of control [11]: 4.4% | kinase still bound, per cent of control [12]: 20% | kinase still bound, per cent of control [13]: 25% | kinase still bound, per cent of control [14]: 3.2% | kinase still bound, per cent of control [15]: 6.8% | kinase still bound, per cent of control [18]: 0% | kinase still bound, per cent of control [19]: 0.7% | kinase still bound, per cent of control [20]: 7.3% | kinase still bound, per cent of control [21]: 90% | kinase still bound, per cent of control [22]: 65% | kinase still bound, per cent of control [23]: 36% | kinase still bound, per cent of control [24]: 3.1% | kinase still bound, per cent of control [26]: 67% | kinase still bound, per cent of control [27]: 87% | kinase still bound, per cent of control [40]: 31% | kinase still bound, per cent of control [29]: 48% | kinase still bound, per cent of control [30]: 20% | kinase still bound, per cent of control [32]: 46% | kinase still bound, per cent of control [33]: 59% | kinase still bound, per cent of control [35]: 100% | kinase still bound, per cent of control [37]: 50% | kinase still bound, per cent of control [38]: 69% | kinase still bound, per cent of control [39]: 65%

From the kinase profiling compilation of Christmann-Franck et al. (2016)
